Structures are written as SMILES.

For this test, the system named is human embryonic stem cell derived neural stem cells (NSCs). The experiment in a line: Neurogenesis assay: neural stem cell proliferation assay. The settings on record: 96 h, compound concentration at which 150% activity of control (100%) is reached, increase in cells based on ATP levels (CellTiterGlo), 4 days incubation, dose response 8 μM to 8 nM. How it is done: Neural Stem Cell Proliferation Assay
Neurogenic properties of small molecules are determined based on the proliferation of human embryonic stem cell derived neural stem cells (NSCs) which were derived via a dual smad inhibition as previously described (Chambers, S. M., et al., Highly efficient neural conversion of human ES and iPS cells by dual inhibition of SMAD signaling, Nature biotechnology, 2009 27(3): p. 275-80.).
Compounds response is measured by the increase in cells based on ATP levels (Promega:CellTiterGlo®) after an incubation period of 4 days. NSCs are thawed and expanded over 3 passages. On the 14th day, NSCs are seeded in Polyornithin/Laminin coated 384 well plates at a cell density of 21,000 cells/cm^2 in a media volume of 38 μl.
4 hours after cell seeding, compound solutions are added at a volume of 2 μl. Stock solutions of the compounds (water, 5% DMSO) are diluted to obtain a dose response (11 points, dilution factor is 2), ranging from 8 μM to 8 nM. Controls are run to consistently determine the neurogenic properties of the cells:
Negative (neutral) control is cell culture Media (final DMSO concentration: 0.25%).
1. cell culture Media+100 ng/ml FGF2 (final DMSO concentration: 0.1%)
2. cell culture Media+20 ng/ml EGF (final DMSO concentration: 0.1%)
3. cell culture Media+100 ng/ml Wnt3a (final DMSO concentration: 0.1%)
After 4 days incubation at 37° C., 5% CO2, the amount of ATP per well is quantified. The ATP concentration is proportional to the cell number. ATP is quantified by using the Promega CellTiterGlo® kit. The CellTiterGlo® reagents contain a cell lysis buffer, a thermo stable luciferase (UltraGlo™ recombinant luciferase), magnesium and luciferin. Luciferin reacts with ATP producing oxyluciferin, AMP and light. The luminescence signal is proportional to the ATP content.
The value of negative (neutral) control is determined for each assay plate by taking the average of 16 negative control wells. The neurogenic compound response is calculated for each compound as (compound/Negative Control)*100. The values of EC150 from the dose response curve are determined for each test compound. The EC150 is the compound concentration at which 150% activity of control (100%) is reached.
For `CCC1(c2ccccc2)CCN(c2ccc(-c3cnco3)c(OC)c2)C1=O` (stereo not shown) [Example 1, 3-Ethyl-1-(3-methoxy-4-(oxazol-5-yl)phenyl)-3-phenylpyrrolidin-2-one], the EC (150% of control) amounted to 3.23 µM. `O=C1N(Cc2ccccc2)CCN1c1ccc(-c2ccncc2)cc1` [Example 2, 1-Benzyl-3-(4-(pyridin-4-yl)phenyl)imidazolidin-2-one] had an EC (150% of control) of 1.04 µM. For the compound `COc1cccc(C2CCN(c3ccc(-c4cnco4)c(OC)c3)C2=O)c1` (stereo not shown) [Example 3, 1-(3-Methoxy-4-oxazol-5-yl-phenyl)-3-(3-methoxyphenyl)pyrrolidin-2-one], the EC (150% of control) stood at 0.0814 µM. As for `COc1cc(N2CCC(c3ccccc3Cl)C2=O)ccc1-c1cnco1` (stereo not shown) [Example 4, 3-(2-Chlorophenyl)-1-(3-methoxy-4-oxazol-5-yl-phenyl)pyrrolidin-2-one], the figure is 0.678 µM; as for `COc1cc(N2CCCN(Cc3ccccc3)C2=O)ccc1-c1cn[nH]c1` [Example 5, 1-Benzyl-3-[3-methoxy-4-(1H-pyrazol-4-yl)phenyl]hexahydropyrimidin-2-one], 1.33 µM. For the compound `COc1cc(N2CCCN(Cc3ccccc3Cl)C2=O)ccc1-c1cn[nH]c1` [Example 6, 1-[(2-Chlorophenyl)methyl]-3-[3-methoxy-4-(1H-pyrazol-4-yl)phenyl]hexahydropyrimidin-2-one], the EC (150% of control) came out at 1.99 µM.

`COc1cccc(CN2CCCN(c3ccc(-c4cn[nH]c4)c(OC)c3)C2=O)c1` [Example 7, 1-[(3-Methoxyphenyl)methyl]-3-[3-methoxy-4-(1H-pyrazol-4-yl)phenyl]hexahydropyrimidin-2-one] had an EC (150% of control) of 0.114 µM.

Turning to `COc1cc(N2CCC(c3ccccc3)C2=O)ccc1-c1cnco1` (stereo not shown) [Example 8, 1-(3-Methoxy-4-oxazol-5-yl-phenyl)-3-phenyl-pyrrolidin-2-one], the EC (150% of control) stood at 0.471 µM. For `COc1cc(N2CCN(Cc3ccccc3)C2=O)ccc1-c1cn[nH]c1` [Example 9, 1-Benzyl-3-[3-methoxy-4-(1H-pyrazol-4-yl)phenyl]imidazolidin-2-one] the value was 0.161 µM; for `COc1cc(N2CCN(Cc3ccccc3Cl)C2=O)ccc1-c1cn[nH]c1` [Example 10, 1-[(2-Chlorophenyl)methyl]-3-[3-methoxy-4-(1H-pyrazol-4-yl)phenyl]imidazolidin-2-one], 0.27 µM.

`COc1cccc(CN2CCN(c3ccc(-c4cn[nH]c4)c(OC)c3)C2=O)c1` [Example 11, 1-[(3-Methoxyphenyl)methyl]-3-[3-methoxy-4-(1H-pyrazol-4-yl)phenyl]imidazolidin-2-one]: the EC (150% of control) came out at 0.0239 µM. `COc1cc(N2CCC(c3ccccc3)C2=O)ccc1-c1cn[nH]c1` (stereo not shown) [Example 12, 1-[3-Methoxy-4-(1H-pyrazol-4-yl)phenyl]-3-phenyl-pyrrolidin-2-one] had an EC (150% of control) of 0.0414 µM. With `O=C1C(c2ccccc2)CCN1c1ccc(-c2cn[nH]c2)cc1` (stereo not shown) [Example 13, 3-Phenyl-1-[4-(1H-pyrazol-4-yl)phenyl]pyrrolidin-2-one], the EC (150% of control) was 0.205 µM.

As to `COc1cccc(C2CCN(c3ccc(-c4cn[nH]c4)cc3)C2=O)c1` (stereo not shown) [Example 14, 3-(3-Methoxyphenyl)-1-[4-(1H-pyrazol-4-yl)phenyl]pyrrolidin-2-one], the EC (150% of control) amounted to 0.0405 µM. For `O=C1C(c2ccc(Cl)cc2)CCN1c1ccc(-c2cn[nH]c2)cc1` (stereo not shown) [Example 15, 3-(4-Chlorophenyl)-1-[4-(1H-pyrazol-4-yl)phenyl]pyrrolidin-2-one] the value was 0.384 µM; for `O=C1C(c2ccc(F)cc2)CCN1c1ccc(-c2cn[nH]c2)cc1` (stereo not shown) [Example 16, 3-(4-Fluorophenyl)-1-[4-(1H-pyrazol-4-yl)phenyl]pyrrolidin-2-one], 0.0417 µM; for `O=C1C(c2cccc(Cl)c2)CCN1c1ccc(-c2cn[nH]c2)cc1` (stereo not shown) [Example 17, 3-(3-Chlorophenyl)-1-[4-(1H-pyrazol-4-yl)phenyl]pyrrolidin-2-one], 0.23 µM. As for `COc1cc(N2CCN(Cc3cccc(Cl)c3)C2=O)ccc1-c1cn[nH]c1` [Example 18, 1-[(3-Chlorophenyl)methyl]-3-[3-methoxy-4-(1H-pyrazol-4-yl)phenyl]imidazolidin-2-one], the EC (150% of control) came to 0.395 µM. For `COc1cc(N2CCN(Cc3cccc(F)c3)C2=O)ccc1-c1cn[nH]c1` [Example 19, 1-[(3-Fluorophenyl)methyl]-3-[3-methoxy-4-(1H-pyrazol-4-yl)phenyl]imidazolidin-2-one] the value was 0.047 µM. As for `COc1cc(N2CCN(Cc3cccc(C(F)(F)F)c3)C2=O)ccc1-c1cn[nH]c1` [Example 20, 1-[3-Methoxy-4-(1H-pyrazol-4-yl)phenyl]-3-[[3-(trifluoromethyl)phenyl]methyl]imidazolidin-2-one], the figure is 0.0086 µM; as for `COc1cc(N2CCN(Cc3cccc(OC(F)(F)F)c3)C2=O)ccc1-c1cn[nH]c1` [Example 21, 1-[3-Methoxy-4-(1H-pyrazol-4-yl)phenyl]-3-[[3-(trifluoromethoxy)phenyl]methyl]imidazolidin-2-one], 0.0092 µM.

`CCOc1cccc(CN2CCN(c3ccc(-c4cn[nH]c4)c(OC)c3)C2=O)c1` [Example 22, 1-[(3-Ethoxyphenyl)methyl]-3-[3-methoxy-4-(1H-pyrazol-4-yl)phenyl]imidazolidin-2-one]: the EC (150% of control) was determined as 0.0739 µM. For `COc1cc(N2CCC(Cc3ccccc3)C2=O)ccc1-c1cn[nH]c1` (stereo not shown) [Example 23, 3-Benzyl-1-(3-methoxy-4-(1H-pyrazol-4-yl)phenyl)pyrrolidin-2-one] the value was 0.612 µM; for `COc1cccc(C2CCN(c3ccc(-c4cn[nH]c4)c(OC)c3)C2=O)c1` (stereo not shown) [Example 24, 1-(3-Methoxy-4-(1H-pyrazol-4-yl)phenyl)-3-(3-methoxyphenyl)pyrrolidin-2-one], 0.0299 µM. As for `COc1cc(N2CCC(c3cccc(Cl)c3)C2=O)ccc1-c1cn[nH]c1` (stereo not shown) [Example 25, 3-(3-Chlorophenyl)-1-(3-methoxy-4-(1H-pyrazol-4-yl)phenyl)pyrrolidin-2-one], the figure is 0.0659 µM; as for `COc1cc(N2CCC(c3cccc(F)c3)C2=O)ccc1-c1cn[nH]c1` (stereo not shown) [Example 26, 3-(3-Fluorophenyl)-1-(3-methoxy-4-(1H-pyrazol-4-yl)phenyl)pyrrolidin-2-one], 0.0776 µM; as for `COc1cccc(CN2CCN(c3ccc(-c4cn[nH]c4)cc3)C2=O)c1` [Example 27, 1-[(3-Methoxyphenyl)methyl]-3-[4-(1H-pyrazol-4-yl)phenyl]imidazolidin-2-one], 0.294 µM. As for `COc1cccc(CN2CCN(c3ccc(-c4cn[nH]c4)c(C)c3)C2=O)c1` [Example 28, 1-[(3-Methoxyphenyl)methyl]-3-[3-methyl-4-(1H-pyrazol-4-yl)phenyl]imidazolidin-2-one], the figure is 1.22 µM; as for `COc1cccc(CN2CCN(c3ccc(-c4cn[nH]c4)c(Cl)c3)C2=O)c1` [Example 29, 1-[3-Chloro-4-(1H-pyrazol-4-yl)phenyl]-3-[(3-methoxyphenyl)methyl]imidazolidin-2-one], 0.366 µM. The compound `COc1cccc(CN2CCN(c3ccc(-c4cn[nH]c4)cc3F)C2=O)c1` [Example 30, 1-[2-Fluoro-4-(1H-pyrazol-4-yl)phenyl]-3-[(3-methoxyphenyl)methyl]imidazolidin-2-one] displayed an EC (150% of control) of 0.0416 µM. On to `COc1cccc(CN2CCN(c3ccc(-c4cn[nH]c4)c(F)c3)C2=O)c1` [Example 31, 1-[3-Fluoro-4-(1H-pyrazol-4-yl)phenyl]-3-[(3-methoxyphenyl)methyl]imidazolidin-2-one], for which the EC (150% of control) was determined as 0.0157 µM. For `CCOc1cc(N2CCN(Cc3cccc(OC)c3)C2=O)ccc1-c1cn[nH]c1` [Example 32, 1-[3-Ethoxy-4-(1H-pyrazol-4-yl)phenyl]-3-[(3-methoxyphenyl)methyl]imidazolidin-2-one] the value was 0.835 µM. Compound `COc1cc(N2CCN(Cc3ccccc3F)C2=O)ccc1-c1cn[nH]c1` [Example 33, 1-[(2-Fluorophenyl)methyl]-3-[3-methoxy-4-(1H-pyrazol-4-yl)phenyl]imidazolidin-2-one] gave an EC (150% of control) of 0.225 µM.

Turning to `COc1cc(N2CCN(Cc3ccccc3C)C2=O)ccc1-c1cn[nH]c1` [Example 34, 1-[3-Methoxy-4-(1H-pyrazol-4-yl)phenyl]-3-(o-tolylmethyl)imidazolidin-2-one], the EC (150% of control) was 0.2 µM.

The record behind these values is patent US9714239B2, “N-phenyl-lactam derivatives capable of stimulating neurogenesis and their use in the treatment of neurological disorders” (Hoffmann-La Roche Inc., priority 2014, dated 2017).
